According to patent publication US7026469B2, “Compositions and methods of double-targeting virus infections and cancer cells” (Wake Forest University School of Medicine, priority 2000, dated 2006):
Read-outs that look alike come from different tables or passages of the source.

Columns and labels:
[1] = system: HIV-1; experiment: HIV-1 syncytial plaque assay in CEM-SS cells; type: cell-based
Procedure: (§1) The inhibitory effects of PC lipids, non-PC lipid-AZT conjugates, and double-targeting PC lipid-AZT conjugate compounds of the invention on replication of HIV-1 virus in cells was examined using the plaque assay procedure described in Kucera et al. (1990, AIDS Research and Human Retroviruses, 6:491). CEM-SS cells were seeded at 50,000 cells per milliliter in RPMI growth medium as a monolayer in 96-well dishes, inoculated with 50 to 100 plaque forming units of HIV-1 and overlaid with serial dilutions of either PC lipid, non-PC lipid-AZT conjugate, or PC-lipid-AZT conjugate in RPMI-1640 growth medium supplemented with 10% fetal bovine serum. The structures of the tested compounds are described in Table 1. AZT and PC lipids were used as positive controls. […] The cytotoxicity of PC lipids, non-PC lipid-AZT conjugates and double targeting PC lipid-AZT conjugates was assessed using the procedure described in Kucera et al. (1990, AIDS Res. And Human Retrovir., 6:496, and 1998, Antiviral Chemistry and Chemotherapy, 9:160). [drawing 16]
In the plaque assay, HIV-1 syncytial plaques are seen as large, multicellular foci (10 to 25 nuclei/syncytium) that appear either brown and granular or clear. Because the number of HIV-1 syncytial plaques was correlated with reverse transcriptase (RT) and p24 core antigen activity in the HIV-1 infected cell overlay fluids, the syncytial plaque assay could be used to quantify the amount of infectious virus. Reverse transcriptase activity was assayed according to the procedure described by Poeisz et al. (1980, Proc. Natl. Acad. Sci. U.S.A. 77:7415). The activity of p24 core antigen induced by HIV-1 infection of CEM-SS cells was measured spectrophotometrically using the commercial Coulter enzyme immunoassay (EIA).

[2] = system: CEM-SS cells; experiment: Cytotoxicity (TC50) of the compounds tested for anti-HIV-1 activity; type: cell-based, human
Procedure: as §1

[3] = Oral administration of phospholipid-AZT conjugate in rodents (distribution, half-life); parameters: species or system rodents (mice); details: mouse, in vivo
[4] = system: human lymphocytes; experiment: Metabolism of conjugate in human lymphocytes in tissue culture; type: in vitro ADME
Procedure: In another set of experiments the metabolism of the compound BM21-1290 using human lymphocytes in tissue culture was assessed. […] The predominant AZT species was AZT-MP with lesser amounts of AZT-DP, AZT-TP and AZT. […] AZT-MP can be activated to AZT-TP the inhibitor of HIV-1 induced reverse transcriptase.

[5] = system: AZT-resistant clinical isolates of HIV-1; experiment: microbe, parasite or virus in culture; type: cell-based; details: for Fold-Increase (G-762 to G-691): post-AZT G-691 versus pre-AZT G-762; for Fold-Increase (H112-2 to G-910): post-AZT G-910 versus pre-AZT H112-2; for EC50: mean of 2 to 4 independent tests
Procedure: as §1
Evaluation of the clinical isolates to the compounds was performed using the plaque assay procedure described herein in Example 1. The matched pairs of clinical isolates were obtained through the AIDS Research and Reference Reagent Program, NIH, Bethesda, Md.

[6] = system: HIV-1 persistently infected H9IIIB cells; experiment: Induction of defective HIV-1 in persistently infected H9IIIB cells (RT activity after infecting fresh CEM-SS cells); type: cell-based; details: for DPM-Bkg: RT activity in CEM-SS overlay medium after 7 or 9 days, H9IIIB cells treated with 1.0 μM compound for 14 or 11 days; for % Inhibition: inhibition of RT activity as measure of defective virus formation, 1.0 μM compound, 14 or 11 days
Procedure: HIV-1 persistently infected H9IIIB cells were washed twice to remove extracellular HIV-1, resuspended in fresh growth medium with or without 1.0 μM of compound for a total of 14 days. During the treatment period, the cells were subcultured 1:3 three times a week. In addition, on days 3, 7 and 11, the cells were pelleted to remove extracellular HIV-1 before subculture in fresh growth medium with or without the compound. After 14 or 11 days of treatment, the virus was pelleted (100,000×g, 1 hr, 4 C.) from the overlay medium to remove free compound, resuspended in fresh medium without compound and assayed for RT activity. The virus suspension was normalized to 500,000 RT DPM and used to infect fresh CEM-SS cells. The infected CEM-SS cells were incubated for a total of 7 or 9 days, and the overlay medium was harvested and assayed for induction of RT activity. The % inhibition of RT activity was used as a measure of defective virus formation during the treatment period.

[7] = system: herpes simplex virus type 2; experiment: Herpes simplex virus type 2 plaque inhibition in Vero cells; type: cell-based
Procedure: Proof-of-concept of the antiviral activity of the double-targeting PC lipid-AZT conjugate compounds of the invention with respect to herpes simplex virus type 2 was evaluated and compared with that of PC lipid alone and with acyclovir (positive controls). Serial dilutions of PC lipid, PC lipid-AZT conjugate compound, or acyclovir were evaluated for inhibition of the formation of herpes simplex virus type 2 plaques in Vero cells and EC50 values were calculated from the results obtained. Briefly, the tests for anti-herpes simplex virus (HSV) activity and cytotoxicity of the compounds were performed by seeding 8×10^4 monkey kidney cells (Vero) per ml of D-MEM with 10% fetal bovine serum (FBS) in each well of a 12-well dish. The cultures were incubated at 37° C. to form a complete monolayer. To measure anti-HSV activity and effective concentration50 (EC50) each cell monolayer was infected with HSV diluted in PBS-A containing about 100 plaque forming units (PFU) per 0.1 ml. After virus attachment (1 hr., 37° C.) the infected monolayers were overlaid with E-MEM containing 2% FBS and 0.5% methyl cellulose with or without added serial concentrations of test compound. […] The EC50 values were calculated using a computer generated program.

[8] = system: monkey kidney cells (Vero); experiment: Cytotoxicity in Vero cell monolayers (cell morphology); type: cell-based; details: 48 hours at 37° C., lowest concentration changing morphology in at least 25% of the cells; for CC50: read-out: Cytotoxicity (TC50)
Procedure: To measure cytotoxicity of the compounds, the cell monolayers (described above) were treated with a serial concentration of test compound for 48 hours at 37° C. and visually examined after crystal violet staining by light microscopy for changes in cell morphology (cell rounding, shrinking, detachment) compared to an untreated control culture.

[9] = system: Friend leukemia virus; details: cited from earlier work
[10] = plaques counted after five days at 37° C., CEM-SS cells, read-out: Anti-HIV-1 Activity (EC50)
[11] = post-AZT isolate, patient code G-691, read-out: EC50 Post-AZT G-691
[12] = post-AZT isolate, patient code G-910, read-out: EC50 Post-AZT G-910
[13] = pre-AZT isolate, patient code G-762, read-out: EC50 Pre-AZT G-762
[14] = pre-AZT isolate, patient code H112-2, read-out: EC50 Pre-AZT H112-2
[15] = Vero cells, 2 days at 37° C., replicate values in one cell, read-out: Anti-Herpes Simplex Activity (EC50)
[16] = acyclovir in replicate tests, read-out: EC50 against herpes simplex virus type 2

Row | Structure (SMILES) | EC50 [1, 10] [nM] | CC50 ([2]; read-out: Cytotoxicity (TC50)) [nM] | Fold-Increase (G-762 to G-691) [5] | Fold-Increase (H112-2 to G-910) [5] | EC50 [5, 11] [nM] | EC50 [5, 12] [nM] | EC50 [5, 13] [nM] | EC50 [5, 14] [nM] | DPM-Bkg [6] [DPM] | % Inhibition [6] [%] | EC50 [7, 15] [nM] | Cytotoxicity (TC50) [8] | CC50 [8] [nM] | other results
1 | CCCCCCCCCCCCSCC(COP(=O)(O)OCC1OC(n2cc(C)c(=O)[nH]c2=O)CC1N=[N+]=[N-])OCCCCCCCCCC (stereo not drawn) [BM21-1290] | 20 | 38500 |  |  |  |  |  |  |  |  |  |  |  | free AZT in the plasma [3]: little or no detectable free AZT in the plasma; half-life [3]: 48 h; tissue uptake [3]: preferentially taken up into lymphoid tissues (lymphoma, spleen and thymus); concentration in the brain versus plasma ([3]; po): equivalent to the concentration of BM21-1290 in the plasma; oral bioavailability ([3]; po): orally bioavailable; intracellular metabolism [4]: metabolized to form an alkyl-lipid plus a phosphorylated species of AZT
2 | CCCCCCCCCCCCSCC(COP(=O)([O-])OCC[N+](C)(C)C)OCCCCCCCCO (stereo not drawn) [INK-18, 3-dodeceylthio-2-(8′-hydroxyoctyloxy)propyl phosphophocholine] | 1920 ± 1800 | 50000 ± 42000 | 0 | 1.8 | 600 | 1040 | > 1060 | 560 | 4195 | 38 |  |  |  | 
3 | CCCCCCCCCCCCSCC(COP(=O)([O-])OCC[N+](C)(C)C)OCCCCCCCCOCc1ccccc1 (stereo not drawn) [INK-17, 3-dodecylthio-2-(8′-benzyloxyoctyloxy)propyl phosphocholine] | 150 ± 130 |  | 0 | 5.1 | 180 | 200 | 260 | 40 | 2847 | 58 | > 4000 | toxic @ 4 |  | CC50 [2]: 49100 ± 13200 nM
4 | CCCCCCCCCCCCSCC(COP(=O)([O-])OCC[N+](C)(C)C)OCCCCCCCCCCCCOCc1ccccc1 (stereo not drawn) [INK-23] | > 1460 | > 100000 |  |  |  |  |  |  |  |  | > 20000 |  | > 20000 | 
5 | CCCCCCCCCCOC(CNC(=O)CCCCCCCCC)COP(=O)([O-])OCC[N+](C)(C)C (stereo not drawn) [INK-11, 1-decanamido-2-decyloxypropyl-3-phosphocholine] |  |  |  |  |  |  |  |  |  |  |  |  |  | inhibition of FLV-induced pathogenesis (splenomegaly) ([9]; 50 milligrams per kilogram of body weight per day for 21 days, infected mice): 42%; suppression against RT activity ([9]; INK-11 compared with AZT alone): 42%
6 | CCCCCCCCCCCCSCC(COP(=O)([O-])OCC[N+](C)(C)C)OCCCCCCCCC(=O)OCC(=O)OC[C@H]1O[C@@H](n2cc(C)c(=O)[nH]c2=O)C[C@@H]1N=[N+]=[N-] (stereo partly drawn) [INK-20] |  | 6900 ± 600 | 18.6 | 22.0 | 740 | 440 | 40 | 20 | 2455 | 64 | > 20000 | toxic @ 20 |  | anti-HIV-1 activity relative to AZT ([1]; compared with AZT): more than ten-fold higher than AZT; EC50 ([1]; read-out: anti-HIV-1 activity): 0.9 nM; cytotoxicity [2]: 6.9 ± 0.6 µM; fold increase in AZT-resistance among HIV-1 clinical isolates ([5]; text summary over both isolate pairs): about 20 fold
7 | CCCCCCCCCCCCSCC(COP(=O)([O-])OCC[N+](C)(C)C)OCCCCCCCCCCCCO (stereo not drawn) [INK-24] | 390 ± 390 | 80600 ± 6200 | 0 | <1.0 | 80 | 250 | 190 | 370 | 3087 | 33 | 13900 |  | > 20000 | EC50 [7, 16]: 13800 nM
8 | CCCCCCCCCCCCSCC(COP(=O)([O-])OCC[N+](C)(C)C)OCCCCCCCCCCOC(=O)CC(=O)OC[C@H]1O[C@@H](n2cc(C)c(=O)[nH]c2=O)C[C@@H]1N=[N+]=[N-] (stereo partly drawn) [INK-25] | 20 ± 10 | 13600 | 2 | 2.5 | 60 | 10 | 30 | 4 | 2140 | 54 | > 20000 | toxic @ 20 |  | 
9 | CCCCCCCCCCCCSCC(COP(=O)([O-])OCC[N+](C)(C)C)OCCCCCCCCCCOCc1ccccc1 (stereo not drawn) [INK-21] | 1500 ± 230 | 57300 ± 10800 |  |  |  |  |  |  |  |  | > 20000 | toxic @ 20 |  | 
10 | CCCCCCCCCCCCSCC(COP(=O)([O-])OCC[N+](C)(C)C)OCCCCCCCCCCO (stereo not drawn) [INK-22] | 390 ± 310 | > 90500 |  |  |  |  |  |  |  |  | > 20000 | toxic @ 20 |  | 
11 | CCCCCCCCCCCCSCC(COP(=O)([O-])OCC[N+](C)(C)C)OCCCCCCCCCCCCOC(=O)CC(=O)OC[C@H]1O[C@@H](n2cc(C)c(=O)[nH]c2=O)C[C@@H]1N=[N+]=[N-] (stereo partly drawn) [INK-26] | 20 ± 20 | 11600 | 20 | 1.5 | 60 | 30 | 3 | 20 | 1793 | 61 |  |  | > 20000 | EC50 [7, 16]: 12000 nM
12 | CCCCCCCCCCCCSCC(COC(=O)CC(=O)OC[C@H]1O[C@@H](n2cc(C)c(=O)[nH]c2=O)C[C@@H]1N=[N+]=[N-])OC (stereo partly drawn) [INK-19] | 6 ± 1 | 6300 ± 1100 | 13.5 | >55.6 | 1620 | > 1700 | 120 | 30 | 2508 | 63 | > 20000 |  | > 20000 | 
